Test results taken from patent publication US20200181284A1, “EPIGENETIC INHIBITORS FOR SENSITIZING HEMATOLOGIC OR OTHER MALIGNANCIES TO GLUCOCORTICOID THERAPY” (UNIVERSITY OF SOUTHERN CALIFORNIA, priority 2017, published 2020).

Key:
hG9a [1] = molecular target: T1, hG9a (Homo sapiens, UniProt Q96KQ7); assay: Methylation of HA-hG9a in Cos-7 cells (pan met-K immunoprecipitation/immunoblot); format: cell-based, African green monkey; settings: Cos-7 cells expressing HA-hG9a N, 2 μM, 24 h
T1 construct: transfected with a plasmid encoding full length HA-hG9a and treated with 2 μM UNC0646; expressed in transfected cells; host or cells: Cos-7
Protocol: (§1) Cells were transiently transfected (where indicated) using Lipofectamine 2000 (Invitrogen) with 5 μg each of the indicated plasmids according to the manufacturer's protocol. […] Protein extracts were incubated with 1 μg of the indicated primary antibodies overnight at 4° C. with shaking. Protein A/G Plus Agarose (Santa Cruz sc-2003) beads were added and the mixture was incubated 2 hr at 4° C. The immunoprecipitates were separated on SDS-PAGE. Immunoblotting was conducted with primary antibodies against HA epitope (3F10 Roche Applied Science); G9a (G6919), FLAG (F1804), (3-actin (A5441), or GAPDH (G9545) from Sigma; aurora kinase B (ab2254), HP1γ (ab10480), HP1γ (ab56978), phospho-593-HP1γ (ab45270) or pan methyllysine (ab23366) from Abcam; GR (sc-8992) from Santa Cruz; GLP (09-078), or pan phospho-threonine (AB1607) from Millipore; phospho-S211-GR (#4161), H3K9me3 (#13969), H3S10ph (#53348), Histone H3 (#4499) from Cell signaling; or E-cadherin (610182) from BD transduction laboratories. Secondary antibodies from Santa Cruz Biotechnology (anti-rat) and Promega (anti-rabbit and anti-mouse) were used for chemiluminescence detection using Super Signal West Dura (Thermo Scientific) for proteins with low expression levels and ECL prime detection reagent (Amersham) for all other proteins according to the manufacturers' instructions. In immunoprecipitation experiments 3% of the input of each sample was analyzed by immunoblot using the antibodies listed.
(§2) Lysates were immunoprecipitated (IP) with pan met-K antibody and immunoblotted with HA antibody (top), or the usage of the two antibodies was reversed (bottom). Expression of HA-tagged proteins and β-actin (loading control) in the unfractionated extracts is shown at the bottom (Input). For FIG. 17D, Cos-7 cells were transfected with a plasmid encoding full length HA-hG9a and treated with 2 μM UNC0646 or vehicle DMSO for 24 h. Lysates were immunoprecipitated with pan met-K antibody and immunoblotted with HA antibody (top), or the usage of the two antibodies was reversed (bottom).
(§3) Lysates were immunoprecipitated with pan met-K antibody and immunoblotted with HA antibody (top).

hG9a [2] = molecular target: T2, hG9a (Homo sapiens, UniProt Q96KQ7); assay: as above; format: cell-based, African green monkey; settings: Cos-7 cells, 2 μM inhibitor, 24 h
T2 construct: transfected with a plasmid encoding full length HA-hG9a and treated with 2 μM UNC0646; expressed in transfected cells; host or cells: Cos-7
T2 sequence (Q96KQ7 1-1210): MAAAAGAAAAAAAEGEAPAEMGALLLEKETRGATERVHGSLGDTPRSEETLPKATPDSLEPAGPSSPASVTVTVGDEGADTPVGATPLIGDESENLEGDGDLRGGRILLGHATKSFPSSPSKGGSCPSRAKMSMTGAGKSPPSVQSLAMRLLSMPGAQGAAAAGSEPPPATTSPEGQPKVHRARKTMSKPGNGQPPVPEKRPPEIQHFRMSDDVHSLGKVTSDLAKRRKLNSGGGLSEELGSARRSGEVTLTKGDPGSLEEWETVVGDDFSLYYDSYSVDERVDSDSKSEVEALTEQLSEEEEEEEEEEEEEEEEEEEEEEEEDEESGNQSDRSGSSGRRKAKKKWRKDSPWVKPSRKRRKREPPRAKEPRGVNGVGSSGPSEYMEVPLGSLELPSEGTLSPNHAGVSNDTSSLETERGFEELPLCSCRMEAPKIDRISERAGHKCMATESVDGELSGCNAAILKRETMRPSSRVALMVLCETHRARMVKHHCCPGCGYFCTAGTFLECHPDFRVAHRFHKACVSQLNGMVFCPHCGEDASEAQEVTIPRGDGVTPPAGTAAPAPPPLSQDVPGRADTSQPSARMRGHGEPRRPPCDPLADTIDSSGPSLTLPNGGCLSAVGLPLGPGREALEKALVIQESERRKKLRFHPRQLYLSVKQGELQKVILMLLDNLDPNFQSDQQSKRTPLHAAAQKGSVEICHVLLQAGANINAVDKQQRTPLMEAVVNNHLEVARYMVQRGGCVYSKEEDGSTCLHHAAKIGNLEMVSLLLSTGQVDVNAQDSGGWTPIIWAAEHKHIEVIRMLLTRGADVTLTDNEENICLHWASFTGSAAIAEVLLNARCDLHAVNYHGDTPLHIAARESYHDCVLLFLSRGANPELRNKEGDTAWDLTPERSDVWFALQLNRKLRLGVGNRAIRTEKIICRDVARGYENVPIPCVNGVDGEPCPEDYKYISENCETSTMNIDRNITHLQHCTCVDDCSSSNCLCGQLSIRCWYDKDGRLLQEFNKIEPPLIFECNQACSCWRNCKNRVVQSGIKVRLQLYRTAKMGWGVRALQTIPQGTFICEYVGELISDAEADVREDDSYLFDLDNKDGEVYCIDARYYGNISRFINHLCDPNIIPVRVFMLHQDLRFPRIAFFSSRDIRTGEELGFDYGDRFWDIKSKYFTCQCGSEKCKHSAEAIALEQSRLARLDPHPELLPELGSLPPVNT
Protocol: as §1, §2, §3

## COc1cc2c(NC3CCN(C4CCCCC4)CC3)nc(N3CCCN(C(C)C)CC3)nc2cc1OCCCN1CCCCC1 [UNC0646]
hG9a [1]
  methylation of the N-terminal G9a fragment: decreased
hG9a [2]
  pan-methyllysine antibody signal on wild type hG9a: strongly decreased
